For 18 compounds, EC50 results are on record in US20250011288A1 (BRISTOL-MYERS SQUIBB COMPANY, priority 2021, published 2025).

Molecules are shown by their SMILES.

For this experiment, the target named is T1, human RXFP1 (Homo sapiens, UniProt Q9HBX9).
T1 construct: expressed in transfected cells
T1 sequence (Q9HBX9 1-757): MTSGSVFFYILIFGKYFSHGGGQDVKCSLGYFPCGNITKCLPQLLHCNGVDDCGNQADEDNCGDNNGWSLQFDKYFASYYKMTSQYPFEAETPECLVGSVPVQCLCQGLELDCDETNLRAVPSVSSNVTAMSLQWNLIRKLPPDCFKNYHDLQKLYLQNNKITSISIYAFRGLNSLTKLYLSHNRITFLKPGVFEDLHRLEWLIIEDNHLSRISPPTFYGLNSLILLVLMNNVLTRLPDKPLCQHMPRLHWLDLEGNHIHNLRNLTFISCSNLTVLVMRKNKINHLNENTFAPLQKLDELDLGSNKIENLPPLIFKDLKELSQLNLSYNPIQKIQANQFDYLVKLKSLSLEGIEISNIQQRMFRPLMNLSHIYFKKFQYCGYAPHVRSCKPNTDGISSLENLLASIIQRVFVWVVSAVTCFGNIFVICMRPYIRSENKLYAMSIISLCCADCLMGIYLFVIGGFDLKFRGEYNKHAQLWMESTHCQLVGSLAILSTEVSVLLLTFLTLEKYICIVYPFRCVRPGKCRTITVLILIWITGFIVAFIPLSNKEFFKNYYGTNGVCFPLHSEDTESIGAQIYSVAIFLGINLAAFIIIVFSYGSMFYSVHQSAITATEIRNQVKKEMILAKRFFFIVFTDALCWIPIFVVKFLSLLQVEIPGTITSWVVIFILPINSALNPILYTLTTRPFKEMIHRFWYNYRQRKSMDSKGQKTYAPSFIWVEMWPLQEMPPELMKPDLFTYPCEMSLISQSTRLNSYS
Nature of the experiment: human RXFP1 (hRXFP1) HEK293 cAMP assay (HTRF). Type of experiment: cell-based. The note with it: HEK293 cells stably expressing human RXFP1, 30 min at room temperature. The method, boiled down: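 HEK293 cells stably expressing human RXFP1 (1500 cells/well) in HBSS/20 mM HEPES/0.05% BSA/0.5 mM IBMX, treated with compound (0.010 nM–50 µM final, 2% DMSO) for 30 min at room temperature. Intracellular cAMP read by HTRF; potency from 4-parameter logistic fit of cAMP versus concentration.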
As to `COc1ncc(C2=NOC3COCC23)cc1C(=O)N[C@H]1[C@@H](C(=O)Nc2ccc(F)c(C(F)(F)F)c2)[C@H]2CC[C@@H]1/C2=C\C1CCCC1` (stereo partly drawn) [Example 136, N-((1R,2R,3S,4R,Z)-7-(cyclopentyl-methylene)-3-((4-fluoro-3-(trifluoromethyl)phenyl)carbamoyl)bicyclo[2.2.1]heptan-2-yl)-2-methoxy-5-(3a,4,6,6a-tetrahydrofuro[3,4-d]isoxazol-3-yl)nicotinamide], the EC50 – broadly, the concentration at which the effect is half-maximal – was 2.5 nM. In other words, the single-digit nanomolar range. In turn, `COc1ncc(C2=NOC3OCCCC23)cc1C(=O)N[C@H]1[C@@H](C(=O)Nc2ccc(F)c(C(F)(F)F)c2)[C@H]2CC[C@@H]1/C2=C\C1CCCC1` (stereo partly drawn) [Example 125, N-((1R,2R, 3S,4R,Z)-7-(cyclopentyl-methylene)-3-((4-fluoro-3-(trifluoromethyl)phenyl)carbamoyl)bicyclo[2.2.1]heptan-2-yl)-2-methoxy-5-(3a,5,6,7a-tetrahydro-4H-pyrano[3,2-d]isoxazol-3-yl)nicotinamide] displayed an EC50 of 3.6 nM.

As to `COc1ncc(C2=NOC3CC(CO)CC23)cc1C(=O)N[C@H]1[C@@H](C(=O)N[C@H](C)C2(C)CC2)[C@H]2CC[C@@H]1/C2=C\C(F)(F)F` (stereo partly drawn) [Example 115, 5-(5-(hydroxymethyl)-3a,5,6,6a-tetrahydro-4H-cyclopenta[d]isoxazol-3-yl)-2-methoxy-N-((1R,2R,3S,4R,Z)-3-(((R)-1-(1-methylcyclopropyl)ethyl)carbamoyl)-7-(2,2,2-trifluoroethylidene)bicyclo[2.2.1]heptan-2-yl)nicotinamide], it took 2.1 nM to reach a half-maximal effect (EC50). Regarding `CC1Cc2cc(C3=NOC4CC(CO)CC34)cc(C(=O)N[C@@H]3C4CCC(/C4=C/C4CC4)[C@@H]3C(=O)N[C@H](C)C3(C)CC3)c2O1` (stereo partly drawn) [Example 152], the EC50 is 9 nM. For `COc1ncc(C(=O)NCC2(S(C)(=O)=O)CC2)cc1C(=O)N[C@H]1C(C(=O)Nc2ccc(F)c(C(F)(F)F)c2)[C@H]2CC[C@@H]1/C2=C\C1CC1` (stereo in doubt) [Example 74, N3-((1R,2R,3R,4R,Z)-7-(cyclopropylmethylene)-3-((4-fluoro-3-(trifluoromethyl)phenyl)carbamoyl)bicyclo[2.2.1]heptan-2-yl)-2-methoxy-N5-((1-(methylsulfonyl)cyclopropyl)methyl)pyridine-3,5-dicarboxamide] the value was 3.5 nM; for `COCCN1CCc2cc(C(=O)N[C@@H]3C4CCC(/C4=C/C4CC4)[C@@H]3C(=O)Nc3ccc(F)c(C(F)(F)F)c3)c(OC)cc2C1` (stereo partly drawn) [Example 91], 4700 nM. Regarding `COc1cc2c(cc1C(=O)N[C@H]1[C@@H](C(=O)Nc3ccc(F)c(C(F)(F)F)c3)[C@H]3CC[C@@H]1/C3=C\C1CC1)CN(CCS(C)(=O)=O)CC2` [Example 84, N-((1R,2R,3S,4R,Z)-7-(cyclopropylmethylene)-3-((4-fluoro-3-(trifluoromethyl)phenyl)carbamoyl)bicyclo[2.2.1]heptan-2-yl)-6-methoxy-2-(2-(methylsulfonyl)ethyl)-1,2,3,4-tetrahydroisoquinoline-7-carboxamide], the EC50 is 330 nM. For `COc1cn(CCCO)nc1C(=O)N[C@H]1[C@@H](C(=O)Nc2ccc(F)c(C(F)(F)F)c2)[C@H]2CC[C@@H]1/C2=C\C1CC1` [Example 80, N-[(1R,2R,3S, 4R,7Z)-7-(cyclopropyl-methylidene)-3-{[4-fluoro-3-(trifluoromethyl)phenyl]carbamoyl}bicyclo[2.2.1]heptan-2-yl]-1-(3-hydroxypropyl)-4-methoxy-1H-pyrazole-3-carboxamide] the value was 260 nM. `Cn1cc(Br)cc(C(=O)N[C@@H]2C3CCC(/C3=C/C3CC3)[C@@H]2C(=O)Nc2ccc(F)c(C(F)(F)F)c2)c1=O` (stereo partly drawn) [Example 18, 5-bromo-N-[(2R,3S,7Z)-7-(cyclopropyl-methylidene)-3-{[4-fluoro-3-(trifluoromethyl)phenyl]carbamoyl}bicyclo [2.2.1]heptan-2-yl]-1-methyl-2-oxo-1,2-dihydropyridino-3-carboxamide] returned an EC50 of 2100 nM. This EC50 lies about 8.1-fold higher than the previous one. In turn, `COc1ncc(C2=NO[C@H]3C[C@H](C#N)CN23)cc1C(=O)N[C@@H]1C2CCC(/C2=C/C2CC2)[C@@H]1C(=O)Nc1ccc(F)c(C(F)(F)F)c1` (stereo partly drawn) [Example 134, 5-((6S,7aS)-6-cyano-5,6,7,7a-tetrahydropyrrolo [1,2-d][1,2,4]oxadiazo 1-3-yl)-N-((1R,2R,3S,4R,Z)-7-(cyclopropyl-methylene)-3-((4-fluoro-3-(trifluoromethyl)phenyl)carbamoyl)bicyclo[2.2.1]heptan-2-yl)-2-methoxynicotinamide] displayed an EC50 of 3.2 nM. `COc1ncc(C2=NOC3CC(C(OC(=O)Nc4ccccc4)C(F)(F)F)CC23)cc1C(=O)N[C@H]1[C@@H](C(=O)Nc2ccc(F)c(C(F)(F)F)c2)[C@H]2CC[C@@H]1/C2=C\C1CCCC1` (stereo partly drawn) [Example 174, 1-[3-(5-{[(1R,2R,3S,4R, 7Z)-7-(cyclopentyl-methylidene)-3-{[4-fluoro-3-(trifluoromethyl)phenyl]carbamoyl}bicyclo[2.2.1]heptan-2-yl]carbamoyl}-6-methoxypyridin-3-yl)-3aH,4H,5H,6H, 6aH-cyclopenta[d][1,2]oxazol-5-yl]-2,2,2-trifluoroethyl N-phenylcarbamate] yielded an EC50 of 1.9 nM. `O=C(O)c1ccc(F)c(-c2cc(C(=O)N[C@@H]3C4CCC(/C4=C/C(F)(F)F)[C@@H]3C(=O)Nc3ccc(F)c(C(F)(F)F)c3)c(OCCO)cn2)c1` (stereo partly drawn) [Example 44, 4-Fluoro-3-(4-{[(2R,3S,7Z)-3-{[4-fluoro-3-(trifluoromethyl)phenyl]carbamoyl}-7-(2,2,2-trifluoroethylidene)bicyclo[2.2.1]heptan-2-yl]carbamoyl}-5-(2-hydroxyethoxy)pyridin-2-yl)benzoic acid] displayed an EC50 of 360 nM. `COc1cccc2cc(C(=O)N[C@@H]3C4CCC(/C4=C/C(F)(F)F)[C@@H]3C(=O)Nc3ccc(F)c(C(F)(F)F)c3)cnc12` (stereo partly drawn) [Example 14, N-[(2R,3S,7Z)-3-{[4-fluoro-3-(trifluoromethyl)phenyl]carbamoyl}-7-(2,2,2-trifluoroethylidene)bicyclo[2.2.1]heptan-2-yl]-8-methoxyquinoline-3-carboxamide] gave an EC50 of 2900 nM.

For the compound `COc1ncc(C2=NOC3COCC23)cc1C(=O)N[C@H]1[C@@H](C(=O)Nc2ccc(F)c(C(F)(F)F)c2)[C@H]2CC[C@@H]1/C2=C\C1CC1` (single isomer, unassigned) [Example 61], the EC50 was determined as 3.7 nM. `O=C(O)c1ccc(F)c(C23COC(C(=O)N[C@H]4[C@@H](C(=O)Nc5ccc(F)c(C(F)(F)F)c5)[C@H]5CC[C@@H]4/C5=C\C(F)(F)F)(C2)C3)c1` [Example 81, 4-fluoro-3-(1-(((1R,2R,3S,4R,Z)-3-((4-fluoro-3-(trifluoromethyl)phenyl)carbamoyl)-7-(2,2,2-trifluoroethylidene)bicyclo[2.2.1]heptan-2-yl)carbamoyl)-2-oxabicyclo[2.1.1]hexan-4-yl)benzoic acid] had an EC50 of 2300 nM.

In turn, `O=C(Nc1ccccc1)O[C@@H](c1ccc(F)c(-c2cnc(OCCO)c(C(=O)N[C@H]3[C@@H](C(=O)Nc4ccc(F)c(C(F)(F)F)c4)[C@H]4CC[C@@H]3/C4=C\C(F)(F)F)c2)c1)C(F)(F)F` [Example 42, (S)-2,2,2-trifluoro-1-(4-fluoro-3-(5-(((1R,2R,3S,4R,Z)-3-((4-fluoro-3-(trifluoromethyl)phenyl)carbamoyl)-7-(2,2,2-trifluoroethylidene)bicyclo[2.2.1]heptan-2-yl)carbamoyl)-6-(2-hydroxyethoxy)pyridin-3-yl)phenyl)ethyl phenylcarbamate] had a half-maximal effective concentration (EC50) of 8.1 nM. `COc1ncc(C2=NOC3CC(O)CC23)cc1C(=O)N[C@H]1[C@@H](C(=O)Nc2ccc(F)c(C(F)(F)F)c2)[C@H]2CC[C@@H]1/C2=C\C1CCC1` (stereo partly drawn) [Example 117, N-((1R,2R,3S,4R,Z)-7-(cyclobutyl-methylene)-3-((4-fluoro-3-(trifluoromethyl)phenyl)carbamoyl)bicyclo[2.2.1]heptan-2-yl)-5-(5-hydroxy-3a,5,6,6a-tetrahydro-4H-cyclopenta[d]isoxazol-3-yl)-2-methoxynicotinamide] had an EC50 of 3.5 nM. For `CC(C)(C)CNC(=O)[C@@H]1[C@H](NC(=O)c2cc(C3=NOC4CC(CO)CC34)cc3c2OC(C)(C)C3)[C@@H]2CC[C@H]1/C2=C/C1CC1` (stereo partly drawn) [Example 146, N-[(1R,2R,3S, 4R,7Z)-7-(cyclopropyl-methylidene)-3-[(2,2-dimethylpropyl)carbamoyl]bicyclo [2.2.1]heptan-2-yl]-5-[5-(hydroxymethyl)-3aH,4H,5H,6H,6aH-cyclopenta[d][1,2]oxazol-3-yl]-2,2-dimethyl-2,3-dihydro-1-benzofuran-7-carboxamide] the value was 3.5 nM.
